Test results: ChEMBL document CHEMBL3885861, “Open TG-GATES”

Organism: Rattus norvegicus
Experiment: Open TG-GATES - Regimen: Daily Repeat
Assay type: toxicity, organism-based, Sprague-Dawley
Parameters: regimen Daily Repeat, gender Male, age 6 weeks
Details: in vivo, po, 0 mg/kg, route gavage, dose level Control; for APTT / Bas / Eos / Fbg / Hb / Ht / Lym / MCH / MCHC / MCV / Mono / Neu / PT / Plat / RBC / Ret / WBC: tissue Blood; for KIDNEY_L / KIDNEY_R / KIDNEY_TOTAL: tissue Kidney; for LIVER: tissue Liver; for A/G / ALP / ALT / AST / BUN / CRE / Ca / Cl / DBIL / GLC / IP / K / LDH / Na / PL / RALB / TBIL / TC / TG / TP / gamma-GTP: tissue Plasma

CCN(CC)N=O [N-NITROSODIETHYLAMINE]
TERMINAL_BW (72 h, time 3 day): 240.5 g
APTT (72 h, time 3 day): 18.3 s
Bas (72 h, time 3 day): 0.8%
Eos (72 h, time 3 day): 1.2%
Fbg (72 h, time 3 day): 218.2 mg/dL
Hb (72 h, time 3 day): 13.8 g/dL
Ht (72 h, time 3 day): 39.7%
Lym (72 h, time 3 day): 77.6%
MCH (72 h, time 3 day): 21.7 pg
MCHC (72 h, time 3 day): 34.8%
MCV (72 h, time 3 day): 62.3 fL
Mono (72 h, time 3 day): 2.6%
Neu (72 h, time 3 day): 17.6%
PT (72 h, time 3 day): 12 s
Plat (72 h, time 3 day): 135 x10_4/uL
RBC (72 h, time 3 day): 638.8 x10_4/ul
Ret (72 h, time 3 day): 5.8%
WBC (72 h, time 3 day): 87.8 x10_2/uL
KIDNEY_L (72 h, time 3 day): 1 g
KIDNEY_R (72 h, time 3 day): 1 g
KIDNEY_TOTAL (72 h, time 3 day): 2 g
LIVER (72 h, time 3 day): 10.5 g
A/G (72 h, time 3 day): 1.6
ALP (72 h, time 3 day): 962 IU/L
ALT (72 h, time 3 day): 35.8 IU/L
AST (72 h, time 3 day): 67 IU/L
BUN (72 h, time 3 day): 16.2 mg/dL
CRE (72 h, time 3 day): 0.4 mg/dL
Ca (72 h, time 3 day): 10.8 mg/dL
Cl (72 h, time 3 day): 102.2 meq/L
DBIL (72 h, time 3 day): 0.09 mg/dL
GLC (72 h, time 3 day): 200.6 mg/dL
IP (72 h, time 3 day): 8 mg/dL
K (72 h, time 3 day): 4 meq/L
LDH (72 h, time 3 day): 211.2 IU/L
Na (72 h, time 3 day): 140.2 meq/L
PL (72 h, time 3 day): 153 mg/dL
RALB (72 h, time 3 day): 3.4 g/dL
TBIL (72 h, time 3 day): 0.1 mg/dL
TC (72 h, time 3 day): 82.6 mg/dL
TG (72 h, time 3 day): 79.2 mg/dL
TP (72 h, time 3 day): 5.6 g/dL
gamma-GTP (72 h, time 3 day): 1 IU/L
TERMINAL_BW ([…], time 7 day): 275.8 g
TERMINAL_BW ([…], time 14 day): 325.9 g
TERMINAL_BW ([…], time 28 day): 396.4 g
APTT ([…], time 7 day): 20.6 s
Bas ([…], time 7 day): 0%
Eos ([…], time 7 day): 1%
Fbg ([…], time 7 day): 217.4 mg/dL
Hb ([…], time 7 day): 13.5 g/dL
Ht ([…], time 7 day): 38.7%
Lym ([…], time 7 day): 79.6%
MCH ([…], time 7 day): 21.3 pg
MCHC ([…], time 7 day): 34.9%
MCV ([…], time 7 day): 61 fL
Mono ([…], time 7 day): 2.4%
Neu ([…], time 7 day): 16%
PT ([…], time 7 day): 11.8 s
Plat ([…], time 7 day): 142.9 x10_4/uL
RBC ([…], time 7 day): 634 x10_4/ul
Ret ([…], time 7 day): 5.8%
WBC ([…], time 7 day): 109.2 x10_2/uL
APTT ([…], time 14 day): 21.7 s
Bas ([…], time 14 day): 1%
Eos ([…], time 14 day): 0.8%
Fbg ([…], time 14 day): 216.6 mg/dL
Hb ([…], time 14 day): 14.7 g/dL
Ht ([…], time 14 day): 41.9%
Lym ([…], time 14 day): 82%
MCH ([…], time 14 day): 21 pg
MCHC ([…], time 14 day): 35%
MCV ([…], time 14 day): 60.1 fL
Mono ([…], time 14 day): 1.8%
Neu ([…], time 14 day): 13.8%
PT ([…], time 14 day): 12 s
Plat ([…], time 14 day): 124.2 x10_4/uL
RBC ([…], time 14 day): 697 x10_4/ul
Ret ([…], time 14 day): 4.3%
WBC ([…], time 14 day): 94.2 x10_2/uL
APTT ([…], time 28 day): 21.9 s
Bas ([…], time 28 day): 0.8%
Eos ([…], time 28 day): 1.4%
Fbg ([…], time 28 day): 225 mg/dL
Hb ([…], time 28 day): 15.5 g/dL
Ht ([…], time 28 day): 42.3%
Lym ([…], time 28 day): 80.8%
MCH ([…], time 28 day): 20.4 pg
MCHC ([…], time 28 day): 36.6%
MCV ([…], time 28 day): 55.8 fL
Mono ([…], time 28 day): 2%
Neu ([…], time 28 day): 14.8%
PT ([…], time 28 day): 11.6 s
Plat ([…], time 28 day): 108.6 x10_4/uL
RBC ([…], time 28 day): 758.6 x10_4/ul
Ret ([…], time 28 day): 2.6%
WBC ([…], time 28 day): 81 x10_2/uL
KIDNEY_L ([…], time 7 day): 1.2 g
KIDNEY_R ([…], time 7 day): 1.1 g
KIDNEY_TOTAL ([…], time 7 day): 2.3 g
KIDNEY_L ([…], time 14 day): 1.3 g
KIDNEY_R ([…], time 14 day): 1.3 g
KIDNEY_TOTAL ([…], time 14 day): 2.6 g
KIDNEY_L ([…], time 28 day): 1.3 g
KIDNEY_R ([…], time 28 day): 1.3 g
KIDNEY_TOTAL ([…], time 28 day): 2.7 g
LIVER ([…], time 7 day): 12.4 g
LIVER ([…], time 14 day): 13.5 g
LIVER ([…], time 28 day): 14.9 g
A/G ([…], time 7 day): 1.5
ALP ([…], time 7 day): 863.2 IU/L
ALT ([…], time 7 day): 32.2 IU/L
AST ([…], time 7 day): 66.2 IU/L
BUN ([…], time 7 day): 15 mg/dL
CRE ([…], time 7 day): 0.4 mg/dL
Ca ([…], time 7 day): 10.4 mg/dL
Cl ([…], time 7 day): 103.2 meq/L
DBIL ([…], time 7 day): 0.1 mg/dL
GLC ([…], time 7 day): 194.8 mg/dL
IP ([…], time 7 day): 8.5 mg/dL
K ([…], time 7 day): 4.1 meq/L
LDH ([…], time 7 day): 190 IU/L
Na ([…], time 7 day): 141 meq/L
PL ([…], time 7 day): 153 mg/dL
RALB ([…], time 7 day): 3.3 g/dL
TBIL ([…], time 7 day): 0.2 mg/dL
TC ([…], time 7 day): 83.2 mg/dL
TG ([…], time 7 day): 102.8 mg/dL
TP ([…], time 7 day): 5.5 g/dL
gamma-GTP ([…], time 7 day): 1 IU/L
A/G ([…], time 14 day): 1.5
ALP ([…], time 14 day): 688.8 IU/L
ALT ([…], time 14 day): 31 IU/L
AST ([…], time 14 day): 64.2 IU/L
BUN ([…], time 14 day): 15 mg/dL
CRE ([…], time 14 day): 0.5 mg/dL
Ca ([…], time 14 day): 10.6 mg/dL
Cl ([…], time 14 day): 101.6 meq/L
DBIL ([…], time 14 day): 0.086 mg/dL
GLC ([…], time 14 day): 205 mg/dL
IP ([…], time 14 day): 8 mg/dL
K ([…], time 14 day): 4 meq/L
LDH ([…], time 14 day): 198.4 IU/L
Na ([…], time 14 day): 141.6 meq/L
PL ([…], time 14 day): 144.4 mg/dL
RALB ([…], time 14 day): 3.4 g/dL
TBIL ([…], time 14 day): 0.1 mg/dL
TC ([…], time 14 day): 72.8 mg/dL
TG ([…], time 14 day): 93.6 mg/dL
TP ([…], time 14 day): 5.8 g/dL
gamma-GTP ([…], time 14 day): 1 IU/L
A/G ([…], time 28 day): 1.3
ALP ([…], time 28 day): 606.8 IU/L
ALT ([…], time 28 day): 33 IU/L
AST ([…], time 28 day): 63.6 IU/L
BUN ([…], time 28 day): 17.4 mg/dL
CRE ([…], time 28 day): 0.5 mg/dL
Ca ([…], time 28 day): 10.3 mg/dL
Cl ([…], time 28 day): 103 meq/L
DBIL ([…], time 28 day): 0.092 mg/dL
GLC ([…], time 28 day): 208.4 mg/dL
